In patent US11034935B2, “Liver organoid, uses thereof and culture method for obtaining them” (Koninklijke Nederlandse Akademie van Wetenschappen, priority 2010, dated 2021):
Read-outs that look alike come from different tables or passages of the source.

How the values were obtained:
[1] = test system: human biliary-derived cultures; assay: Expansion of human biliary-derived liver cultures; assay type: cell-based; conditions: 500 uM added to expansion medium (ERFHNic and ENRWFHNic)
Lgr5 = conditions: Lgr5-LacZ knockin mice; for Lgr5 reporter expression in the liver: 0.8 ml/kg injection
Wnt signalling = Wnt signalling reporter (LacZ) in liver of Axin2-LacZ mice; conditions: after injection
liver organoid cultures = assay: Hepatocyte differentiation of liver organoid cultures by added compounds, RT-PCR of hepatocyte markers; conditions: titration, hepatocyte marker expression 7 days

## Cc1cccc(-c2nn(C(=S)Nc3ccccc3)cc2-c2ccnc3ccccc23)n1 [A83-01, 3-(6-Methyl-2-pyridinyl)-N-phenyl-4-(4-quinolinyl)-1H-pyrazole-1-carbothioamide]
[1]
  expansion of human biliary-derived cultures: able to expand human biliary-derived cultures

## ClC(Cl)(Cl)Cl [CC14, carbon tetrachloride]
Lgr5
  time of peak Lgr5 reporter expression after injury: 6.5 days
  Lgr5 reporter expression in the liver: induces Lgr5 expression in the liver at sites of active regeneration
Lgr5; listed as CCL4
  Lgr5 reporter expression in the liver: upregulation of Lgr5
Wnt signalling; listed as CCL4
  Wnt signalling in the liver: Wnt signalling is activated

## C[C@H](NC(=O)Cc1cc(F)cc(F)c1)C(=O)N[C@H](C(=O)OC(C)(C)C)c1ccccc1 [DAPT]
Liver organoid cultures
  maximal concentration efficiency: 10 µM

B1: R-spondin1: Wnt agonist, secreted protein of the R-spondin family; Lgr5 ligand (protein, UniProt Q2MKA7 21-263, looked up)
R-spondin-1: SRGIKGKRQRRISAEGSQACAKGCELCSEVNGCLKCSPKLFILLERNDIRQVGVCLPSCPPGYFDARNPDMNKCIKCKIEHCEACFSHNFCTKCKEGLYLHKGRCYPACPEGSSAANGTMECSSPAQCEMSEWSPWGPCSKKQQLCGFRRGSEERTRRVLHAPVGDHAACSDTKETRRCTVRRVPCPEGQKRRKGGQGRRENANRNLARKESKEAGAGSRRRKGQQQQQQQGTVGPLTSAGPA
Wnt signalling
  Wnt signalling in the liver: liver cells are responsive to Wnt stimulation
Wnt signalling; listed as R-spondin
  Wnt signalling in the liver: upregulation of Wnt signalling expression in the liver ducts
